Measurements: PubChem BioAssay AID330 (DTP/NCI, 2004)
“And” between values parts separate entries of the source, which are not always exact repeats. Equal values may be shown once. Inconclusive results and toxic doses are left out. The calls were made as follows: active = survival T/C of 150% or more; inactive = T/C below 125% in these data.

System: P388 leukemia ip, CD2F1 mice, survival T/C
Assay: NCI In Vivo Anticancer Drug Screen. Data for tumor model P388 Leukemia (intraperitoneal) in CD2F1 (CDF1) mice
Settings: endpoint: median survival time, higher = longer survival
In short: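 Mice carrying the transplanted tumor received test compound or vehicle. Survival was recorded in each group, and the value is the treated-group measurement divided by that of the vehicle-treated control group.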

[1] = dose: 25.0 mg/kg/injection, schedule: Q01DX009 (ip), vehicle: saline with Tween-80
[2] = dose: 50.0 mg/kg/injection, schedule: Q01DX009 (ip), vehicle: saline with Tween-80
[3] = dose: 100.0 mg/kg/injection, schedule: Q01DX009 (ip), vehicle: saline with Tween-80
[4] = dose: 200.0 mg/kg/injection, schedule: Q01DX009 (ip), vehicle: saline with Tween-80
[5] = dose: 50.0 mg/kg/injection, schedule: Q01DX005 (ip), vehicle: Klucel (hydroxypropylcellulose) (HPC)
[6] = dose: 100.0 mg/kg/injection, schedule: Q01DX005 (ip), vehicle: Klucel (hydroxypropylcellulose) (HPC)
[7] = dose: 200.0 mg/kg/injection, schedule: Q01DX005 (ip), vehicle: Klucel (hydroxypropylcellulose) (HPC)
[8] = dose: 400.0 mg/kg/injection, schedule: Q01DX009 (ip), vehicle: saline with Tween-80
[9] = dose: 60.0 mg/kg/injection, schedule: Q01DX005 (ip), vehicle: saline with Tween-80
[10] = dose: 120.0 mg/kg/injection, schedule: Q01DX005 (ip), vehicle: saline with Tween-80
[11] = dose: 240.0 mg/kg/injection, schedule: Q01DX005 (ip), vehicle: saline with Tween-80
[12] = dose: 50.0 mg/kg/injection, schedule: Q01DX005 (ip), vehicle: saline with Tween-80
[13] = dose: 100.0 mg/kg/injection, schedule: Q01DX005 (ip), vehicle: saline with Tween-80
[14] = dose: 60.0 mg/kg/injection, schedule: Q01DX005 (ip), vehicle: Klucel (hydroxypropylcellulose) (HPC)
[15] = dose: 120.0 mg/kg/injection, schedule: Q01DX005 (ip), vehicle: Klucel (hydroxypropylcellulose) (HPC)
[16] = dose: 240.0 mg/kg/injection, schedule: Q01DX005 (ip), vehicle: Klucel (hydroxypropylcellulose) (HPC)
[17] = dose: 50.0 mg/kg/injection, schedule: Q01DX005 (ip), vehicle: Klucel + Tween-80
[18] = dose: 100.0 mg/kg/injection, schedule: Q01DX005 (ip), vehicle: Klucel + Tween-80
[19] = dose: 200.0 mg/kg/injection, schedule: Q01DX005 (ip), vehicle: Klucel + Tween-80
[20] = dose: 12.5 mg/kg/injection, schedule: Q01DX005 (ip), vehicle: saline with Tween-80
[21] = dose: 25.0 mg/kg/injection, schedule: Q01DX005 (ip), vehicle: saline with Tween-80
[22] = dose: 60.0 mg/kg/injection, schedule: Q01DX005 (ip), vehicle: saline
[23] = dose: 120.0 mg/kg/injection, schedule: Q01DX005 (ip), vehicle: saline
[24] = dose: 12.5 mg/kg/injection, schedule: Q01DX005 (ip), vehicle: Klucel (hydroxypropylcellulose) (HPC)
[25] = dose: 6.25 mg/kg/injection, schedule: Q01DX005 (ip), vehicle: saline with Tween-80

Measured: T/C

CCCCOP(=O)(NNP(=O)(OCCCC)OCCCC)OCCCC
inactive: [1] 102 % of control | [2] 102 % of control | [3] 100 % of control | [4] 101 % of control

Cc1ccc(N=Nc2c(-c3cccs3)nn(C(=S)S)c2C(F)(F)F)cc1
inactive: [5] 92 % of control | [6] 92 % of control | [7] 87 % of control

COC(=O)C(Cl)c1ccccc1 (centres undefined)
inactive: [3] 104 % of control | [4] 113 % of control | [8] 100 % of control

O=C(C#Cc1ccccc1)C1=Cc2ccccc2OC1
inactive: [5] 94 % of control | [6] 95 % of control | [7] 96 % of control

CCCCOB(CI)OCCCC
inactive: dose: 6.25 mg/kg/injection, schedule: Q04DX003 (ip), vehicle: saline 110 % of control | dose: 12.5 mg/kg/injection, schedule: Q04DX003 (ip), vehicle: saline 100 % of control | dose: 25.0 mg/kg/injection, schedule: Q04DX003 (ip), vehicle: saline 110 % of control

C/C=C(\C(=O)OC)C1CC2OC(=O)C1(C=O)C13CCNC21N(C)c1ccccc13 (centres undefined)
inactive: dose: 4.5 mg/kg/injection, schedule: Q01DX005 (ip), vehicle: saline + Tween-80 + alcohol 104 % of control | dose: 9.5 mg/kg/injection, schedule: Q01DX005 (ip), vehicle: saline + Tween-80 + alcohol 98 % of control | dose: 18.0 mg/kg/injection, schedule: Q01DX005 (ip), vehicle: saline + Tween-80 + alcohol 104 % of control | dose: 38.0 mg/kg/injection, schedule: Q01DX005 (ip), vehicle: saline + Tween-80 + alcohol 98 % of control

O=c1oc(-c2cccc(-c3nc4sc5c(c4c(=O)o3)CCCC5)c2)nc2sc3c(c12)CCCC3
inactive: dose: 100.0 mg/kg/injection, schedule: Q01DX001 (ip), vehicle: Klucel (hydroxypropylcellulose) (HPC) 93 % of control | dose: 200.0 mg/kg/injection, schedule: Q01DX001 (ip), vehicle: Klucel (hydroxypropylcellulose) (HPC) 91 % of control | dose: 400.0 mg/kg/injection, schedule: Q01DX001 (ip), vehicle: Klucel (hydroxypropylcellulose) (HPC) 89 % of control

CCOC(=O)C(Cc1ccccc1)NC(=O)N(CCCl)CCCl (centres undefined)
inactive: dose: 66.0 mg/kg/injection, schedule: Q04DX003 (ip), vehicle: saline with Tween-80 109 % of control | [3] 109 % of control | dose: 150.0 mg/kg/injection, schedule: Q04DX003 (ip), vehicle: saline with Tween-80 113 % of control | [4] 122 % of control

CN1C(=O)C2CCC(=O)N2C(=S)N(C)C1=S (centres undefined)
inactive: [9] 106 % of control | [10] 104 % of control

O=C(NC(=S)Nc1ncn[nH]1)c1ccc(Cl)c(Cl)c1
inactive: dose: 12.5 mg/kg/injection, schedule: Q01DX009 (ip), vehicle: saline with Tween-80 104 % of control | [1] 100 % of control | [2] 95 % of control | [3] 91 % of control | [4] 92 % of control

CC(NCNc1ccc2ccccc2c1)C(=O)O (centres undefined)
inactive: [2] 104 % of control | [3] 106 % of control | [4] 98 % of control

CC1(C)CC(=O)C=C(OCCc2ccccc2)C1
inactive: dose: 100.0 mg/kg/injection, schedule: Q04DX003 (ip), vehicle: saline with Tween-80 100 % of control | dose: 200.0 mg/kg/injection, schedule: Q04DX003 (ip), vehicle: saline with Tween-80 100 % of control | dose: 400.0 mg/kg/injection, schedule: Q04DX003 (ip), vehicle: saline with Tween-80 95 % of control

COC(=O)C(=O)c1ccccc1
inactive: [2] 107 % of control | [3] 101 % of control | [4] 99 % of control | [8] 99 % of control

O=C(O)[C@H](Cc1ccccc1)N1C(=O)N[C@@H](Cc2ccccc2)C1=O
inactive: [9] 96 % of control | [10] 104 % of control | [11] 99 % of control

CC(C)(O)c1cc2nc3ccccc3nc2n1CCO
inactive: [9] 109 % of control | [10] 107 % of control | [11] 108 % of control

NC(=O)CSCC(=O)c1ccccc1
inactive: [12] 102 % of control | [13] 107 % of control | dose: 200.0 mg/kg/injection, schedule: Q01DX005 (ip), vehicle: saline with Tween-80 102 % of control

CC(O)Cc1c(N)n2c(nc3ccccc32)[nH]c1=O (centres undefined)
inactive: [14] 102 % of control | [15] 97 % of control | [16] 92 % of control

COc1c(O)cc2oc(-c3ccccc3)c(O)c(=O)c2c1OC
inactive: dose: 25.0 mg/kg/injection, schedule: Q01DX005 (ip), vehicle: Klucel + Tween-80 89 % of control | [17] 95 % of control | [18] 98 % of control | [19] 95 % of control

O=C(O)c1c(Cl)n(Cc2ccc(Cl)cc2Cl)c2ccccc12
inactive: [14] 100 % of control | [15] 103 % of control and 93 % of control | [16] 104 % of control and 93 % of control

CC(O)CNC1CCCCC1 (centres undefined)
inactive: [1] 100 % of control | [2] 100 % of control | [3] 100 % of control

CC1=CC(O)C(O)C2(C)C1CC1OC(=O)CC3C(C)C(O)C(=O)C2C13CO (centres undefined)
inactive: [20] 97 % of control | [21] 100 % of control | [12] 102 % of control

Oc1ccc(C(c2cc3c(cc2O)OCO3)N2CCN(C(c3ccc(O)cc3)c3cc4c(cc3O)OCO4)CC2)cc1 (centres undefined)
inactive: [14] 104 % of control | [15] 103 % of control | [16] 100 % of control

CN(N=O)C1=NC2(CCCCC2)P(=O)(NNc2ncccn2)O1 (centres undefined)
inactive: [22] 101 % of control | [23] 102 % of control

CC(=O)OC1(C)C(=O)OC/C2=C/CN(C)CCC(OC(=O)C(O)(C(C)Cl)CC1C)C2=O (centres undefined)
inactive: [24] 103 % of control | dose: 25.0 mg/kg/injection, schedule: Q01DX005 (ip), vehicle: Klucel (hydroxypropylcellulose) (HPC) 100 % of control | [5] 99 % of control and 103 % of control

CC1CN=C(c2ccc(NC(=O)NCCCCCCCCCCCCNC(=O)Nc3ccc(C4=NCC(C)N4)cc3)cc2)N1 (centres undefined)
inactive: [25] 103 % of control | [20] 103 % of control | [21] 108 % of control | [12] 106 % of control | [13] 116 % of control

NCCOCCN
inactive: [22] 100 % of control | [23] 101 % of control | dose: 240.0 mg/kg/injection, schedule: Q01DX005 (ip), vehicle: saline 95 % of control

CCCCCSC1=NC(c2ccc(C)cc2)(c2ccc(C)cc2)C(=O)N1
inactive: [17] 100 % of control | [18] 100 % of control | [19] 98 % of control

O=C1OC(=O)C2C3OC(C(Br)C3Br)C12 (centres undefined)
inactive: [5] 102 % of control | [6] 98 % of control

CC(=O)OC(C(=O)O)N1C(=O)C2C3C=CC(C2C1=O)C1C2C(=O)N(C(OC(C)=O)C(=O)O)C(=O)C2C31 (centres undefined)
inactive: dose: 25.0 mg/kg/injection, schedule: Q01DX009 (ip), vehicle: water 103 % of control | dose: 50.0 mg/kg/injection, schedule: Q01DX009 (ip), vehicle: water 110 % of control | dose: 100.0 mg/kg/injection, schedule: Q01DX009 (ip), vehicle: water 110 % of control and 113 % of control and 123 % of control

CCOC([O-])=N/C(=N/[n+]1ccc(C)cc1)c1ccccc1
inactive: dose: 100.0 mg/kg/injection, schedule: Q04DX003 (ip), vehicle: saline 104 % of control | dose: 200.0 mg/kg/injection, schedule: Q04DX003 (ip), vehicle: saline 106 % of control

O=C(CNC(=O)c1ccccc1)N/N=C/c1ccc2c(c1)OCO2
inactive: [1] 100 % of control | [8] 96 % of control

O=[N+]([O-])c1ccccc1NN=NCCF
inactive: dose: 3.12 mg/kg/injection, schedule: Q01DX005 (ip), vehicle: Klucel (hydroxypropylcellulose) (HPC) 100 % of control | dose: 6.25 mg/kg/injection, schedule: Q01DX005 (ip), vehicle: Klucel (hydroxypropylcellulose) (HPC) 100 % of control | [24] 109 % of control

COc1ccc(Cc2c3ccccc3cc[n+]2Cc2ccccc2)cc1OC
inactive: [25] 103 % of control | [20] 111 % of control | [21] 111 % of control | [12] 114 % of control
